What was measured:
[1] = AUC (0 to t) in CD rat plasma at 3 mg/kg/day, IV administered measured up to 24 hrs by LC-MS/MS analysis; type: ADME, organism-based; design: route intravenous, dose 3 mg/kg/day, time <=24
[2] = Hepatotoxicity in C57BL/6 mouse assessed as effect on alkaline phosphatase level at 0.5 mg/kg, iv administered measured after 7 days; type: toxicity, organism-based; settings: in vivo, 168 h, time 7 day
[3] = Metabolic stability in rat microsomes assessed as intrinsic clearance; type: ADME, Microsome; settings: read-out: CLH
[4] = Hepatotoxicity in C57BL/6 mouse assessed as effect on bilirubin level at 0.5 mg/kg, iv administered measured after 7 days; type: toxicity, organism-based; settings: in vivo, 168 h, time 7 day
[5] = Hepatotoxicity in C57BL/6 mouse assessed as effect on alanine aminotransferase level at 0.5 mg/kg, iv administered measured after 7 days; type: toxicity, organism-based; settings: in vivo, 168 h, time 7 day
[6] = Hepatotoxicity in C57BL/6 mouse assessed as effect on alkaline phosphatase level at 5 mg/kg, iv administered measured after 7 days; type: toxicity, organism-based; settings: in vivo, 168 h, time 7 day
[7] = Hepatotoxicity in C57BL/6 mouse assessed as effect on alanine aminotransferase level at 5 mg/kg, iv administered measured after 7 days; type: toxicity, organism-based; settings: in vivo, 168 h, time 7 day
Mononuclear cell line [8] = type: toxicity, cell-based; settings: human, 72 h, 0.01 µM, dose 10 nM
[9] = Terminal half life in CD rat at 3 mg/kg/day, IV administered measured up to 24 hrs by LC-MS/MS analysis; type: ADME, organism-based; settings: in vivo, read-out: beta t1/2 (converted)
[10] = Hepatotoxicity in C57BL/6 mouse assessed as effect on amylase level at 1 mg/kg, iv administered measured after 7 days; type: toxicity, organism-based; settings: in vivo, 168 h, time 7 day
[11] = Hepatotoxicity in C57BL/6 mouse assessed as effect on aspartate aminotransferase level at 10 mg/kg, iv administered measured after 7 days; type: toxicity, organism-based; settings: in vivo, 168 h, time 7 day
[12] = Hepatotoxicity in C57BL/6 mouse assessed as effect on alanine aminotransferase level at 10 mg/kg, iv administered measured after 7 days; type: toxicity, organism-based; settings: in vivo, 168 h, time 7 day
[13] = Intrinsic clearance in CD rat plasma at 3 mg/kg/day, IV administered measured up to 24 hrs by LC-MS/MS analysis; type: ADME, organism-based; settings: in vivo
[14] = Hepatotoxicity in C57BL/6 mouse assessed as effect on amylase level at 10 mg/kg, iv administered measured after 7 days; type: toxicity, organism-based; settings: in vivo, 168 h, time 7 day
[15] = Hepatotoxicity in C57BL/6 mouse assessed as effect on amylase level at 5 mg/kg, iv administered measured after 7 days; type: toxicity, organism-based; settings: in vivo, 168 h, time 7 day
[16] = Hepatotoxicity in C57BL/6 mouse assessed as effect on aspartate aminotransferase level at 5 mg/kg, iv administered measured after 7 days; type: toxicity, organism-based; settings: in vivo, 168 h, time 7 day
[17] = Hepatotoxicity in C57BL/6 mouse assessed as effect on alkaline phosphatase level at 10 mg/kg, iv administered measured after 7 days; type: toxicity, organism-based; settings: in vivo, 168 h, time 7 day
[18] = Toxicity in C57BL/6 mouse assessed as effect on aspartate aminotransferase level in serum at 0.5 mg/kg, iv measured after 7 days; type: organism-based; settings: in vivo, 168 h, time 7 day
[19] = Volume of distribution at steady state in CD rat at 3 mg/kg/day, IV administered measured up to 24 hrs by LC-MS/MS analysis; type: ADME, organism-based; settings: in vivo, read-out: Vdss
Mononuclear cell line [20] = type: toxicity, cell-based; settings: human, 72 h, 10 µM
Mononuclear cell line [21] = type: toxicity, cell-based; settings: human, 72 h, 0.001 µM, dose 1 nM
[22] = Hepatotoxicity in C57BL/6 mouse assessed as effect on alkaline phosphatase level at 1 mg/kg, iv administered measured after 7 days; type: toxicity, organism-based; settings: in vivo, 168 h, time 7 day
[23] = Hepatotoxicity in C57BL/6 mouse assessed as effect on bilirubin level at 1 mg/kg, iv administered measured after 7 days; type: toxicity, organism-based; settings: in vivo, 168 h, time 7 day
[24] = Hepatotoxicity in C57BL/6 mouse assessed as effect on aspartate aminotransferase level at 1 mg/kg, iv administered measured after 7 days; type: toxicity, organism-based; settings: in vivo, 168 h, time 7 day
[25] = MRT in CD rat plasma at 3 mg/kg/day, IV administered measured up to 24 hrs by LC-MS/MS analysis; type: ADME, organism-based
[26] = Hepatotoxicity in C57BL/6 mouse assessed as effect on gamma glutamyl transferase level at 1 mg/kg, iv administered measured after 7 days; type: toxicity, organism-based; settings: in vivo, 168 h, time 7 day
[27] = Hepatotoxicity in C57BL/6 mouse assessed as effect on aspartate aminotransferase level at 0.5 mg/kg, iv administered measured after 7 days; type: toxicity, organism-based; settings: in vivo, 168 h, time 7 day
[28] = Metabolic stability in human microsomes assessed as intrinsic clearance; type: ADME, Microsome; settings: read-out: CLH
[29] = Hepatotoxicity in C57BL/6 mouse assessed as effect on gamma glutamyl transferase level at 0.5 mg/kg, iv administered measured after 7 days; type: toxicity, organism-based; settings: in vivo, 168 h, time 7 day
[30] = Hepatotoxicity in C57BL/6 mouse assessed as effect on alanine aminotransferase level at 1 mg/kg, iv administered measured after 7 days; type: toxicity, organism-based; settings: in vivo, 168 h, time 7 day
[31] = Hepatotoxicity in C57BL/6 mouse assessed as effect on bilirubin level at 5 mg/kg, iv administered measured after 7 days; type: toxicity, organism-based; settings: in vivo, 168 h, time 7 day
[32] = Hepatotoxicity in C57BL/6 mouse assessed as effect on amylase level at 0.5 mg/kg, iv administered measured after 7 days; type: toxicity, organism-based; settings: in vivo, 168 h, time 7 day
Mononuclear cell line [33] = type: toxicity, cell-based; settings: human, 72 h, 1 µM
[34] = Metabolic stability in mouse microsomes assessed as intrinsic clearance; type: ADME, Microsome
[35] = Hepatotoxicity in C57BL/6 mouse assessed as effect on gamma glutamyl transferase level at 5 mg/kg, iv administered measured after 7 days; type: toxicity, organism-based; settings: in vivo, 168 h, time 7 day
[36] = Hepatotoxicity in C57BL/6 mouse assessed as effect on bilirubin level at 10 mg/kg, iv administered measured after 7 days; type: toxicity, organism-based; settings: in vivo, 168 h, time 7 day
[37] = Toxicity in C57BL/6 mouse assessed as effect on aspartate aminotransferase level in serum at 5 mg/kg, iv measured after 7 days; type: organism-based; settings: in vivo, 168 h, time 7 day
[38] = AUC (0 to infinity) in CD rat plasma at 3 mg/kg/day, IV administered measured up to 24 hrs by LC-MS/MS analysis; type: ADME, organism-based; design: route intravenous, dose 3 mg/kg/day, time <=24
[39] = Hepatotoxicity in C57BL/6 mouse assessed as effect on gamma glutamyl transferase level at 10 mg/kg, iv administered measured after 7 days; type: toxicity, organism-based; settings: in vivo, 168 h, time 7 day

In the case of `COc1ccc(NC(=O)c2cccc(-c3nc(NC(P(=O)(O)O)P(=O)(O)O)c4ccsc4n3)c2)cc1F`, the AUC(0-t) at 24 h [1] is reported as 149 µM·h, the Activity [2] is reported as “Non-Toxic” and the microsomal CLint [3] is reported as 13 µL/min/mg. For the same molecule, the Activity [4] was “Non-Toxic”, the Activity [5] was “Non-Toxic” and the Activity [6] was “Non-Toxic”. For the same molecule, the Activity [7] was “Non-Toxic”, the Activity (Mononuclear cell line [8]) was 77.2% and the half-life [9] was 5.34 h. The Activity [10] was “Non-Toxic”, the Activity [11] was “Non-Toxic” and the Activity [12] was “Non-Toxic”. For the same molecule, the CL [13] was 0.567 mL/min/kg, the Activity [14] was “Non-Toxic” and the Activity [15] was “Non-Toxic”. For the same molecule, the Activity [16] was “Non-Toxic”, the Activity [17] was “Non-Toxic” and the Activity [18] was “Non-Toxic”. The Vd [19] was 0.211 L/kg, the Activity (Mononuclear cell line [20]) was 21.3% and the Activity (Mononuclear cell line [21]) was 79.7%. For the same molecule, the Activity [22] was “Non-Toxic”, the Activity [23] was “Non-Toxic” and the Activity [24] was “Non-Toxic”. For the same molecule, the MRT [25] was 6.21 h, the Activity [26] was “Non-Toxic” and the Activity [27] was “Non-Toxic”. For the same molecule, the microsomal CLint [28] was 7 µL/min/mg, the Activity [29] was “Non-Toxic” and the Activity [30] was “Non-Toxic”. The Activity [31] was “Non-Toxic”, the Activity [32] was “Non-Toxic” and the Activity (Mononuclear cell line [33]) was 17.8%. For the same molecule, the CLH [34] was 27 µL/min/mg, the Activity [35] was “Non-Toxic” and the Activity [36] was “Non-Toxic”. The Activity [37] was “Non-Toxic”, the AUC(0-inf) [38] was 155 µM·h and the Activity [39] was “Non-Toxic”.

— ChEMBL document CHEMBL5046266, “Synthesis and Evaluation of Structurally Diverse C-2-Substituted Thienopyrimidine-Based Inhibitors of the Human Geranylgeranyl Pyrophosphate Synthase” (J Med Chem, 2022)
